Test system: γ-secretase
Assay: Cell-Based γ-Secretase Assay with ELISA Readout
Set-up: species or system human
Settings: for IC50: production of Aβ(1-42) in human WT-APP overexpressing CHO cells, ~24 h, footnote a = single determination, footnote b = geometric mean of ≧5 determinations, read-out: Aβ 42B IC50 (nM) Geometric mean of 2-4 determinations (unless otherwise indicated)
Procedure: The ability of compounds to modulate production of amyloid beta protein Aβ(1-42) was determined using human WT-APP overexpressing CHO cells. Cells were plated at 22,000 cells/100 μL well in 96 well tissue culture treated, clear plates (Falcon) in DMEM/F12 based medium and incubated for 24 h at 37° C. Compounds for testing were diluted in 100% DMSO to achieve an eleven point, half log, dose response for IC50 determinations. Compounds were added in fresh medium to achieve 1% final DMSO. Appropriate vehicle or inhibitor controls were added into control wells individually to obtain minimum or maximum inhibition values, respectively, for the assay signal window before the plates were incubated for ˜24 h at 37° C. This procedure produces conditioned media in each well, which is tested for Aβ(1-42) levels in the ELISA detection step described next. The remaining cell cultures in each well are also tested for cell toxicity as described below.
Coating of ELISA assay plates was initiated by addition of 50 μL/well of an in-house Aβ(1-42) specific antibody (3 μg/mL) in 0.1 M NaHCO3 (pH 9.0) into black 384-well Maxisorp® plates (Nunc); incubation was carried out overnight at 4° C. The capture antibody was then aspirated from the ELISA assay plates and plates were washed either 2×100 μL with a Matrical Squirt plate washer, or 3×90 μL with a Thermo Combi, using Wash Buffer (Dulbecco's PBS, 0.05% Tween 20). 90 μL/well of Blocking Buffer (Dulbecco's PBS, 1.0% BSA (Sigma A7030) was then added to plates. Ambient temperature incubation was allowed to proceed for a minimum of 2 h. Blocking Buffer was then removed and 20 μL/well Assay Buffer (Dulbecco's PBS, 1.0% BSA (Sigma A7030), 0.05% Tween 20) was then added. At this point, 35 μL (40 μL prior to August, 2012) (in duplicate) of experimental conditioned media (described above) was transferred into wells of the blocked ELISA plates containing the capture antibody, followed by overnight incubation at 4° C. Cell toxicity was also measured in the corresponding remaining cells after removal of the conditioned media for the Aβ(1-42) assay by a colorimetric cell proliferation assay (CellTiter 96® AQueous One Solution Cell Proliferation Assay, Promega) according to the manufacturer's instructions.
After overnight incubation of the ELISA assay plates at 4° C., unbound Aβ peptides were removed via either 2×100 μL washes with a Matrical Squirt plate washer, or 3×90 μL washes with a Thermo Combi, using Wash Buffer. Europium (Eu) labeled (custom labeled, PerkinElmer) Aβ(1-16) 6e10 Monoclonal Antibody (Covance #SIG-39320) was added, (50 μL/well Eu-6e10@1:10,000, 20 uM EDTA) in Assay Buffer. Incubation at ambient temperature for a minimum of 2 h was followed by either 2×100 μL washes with a Matrical Squirt plate washer, or 3×90 μL washes with a Thermo Combi, using Wash Buffer, before 30 μL/well of Delfia Enhancement Solution (PerkinElmer) was added. Following 30 to 60 min ambient temperature incubation, the plates were read on an EnVision plate reader (PerkinElmer) using standard DELFIA TRF settings. Data analysis including inhibitory IC50 determination was performed using nonlinear regression fit analysis (in-house software) and the appropriate plate mean values for the maximum and minimum inhibition controls.

Compound | IC50 [nM] | potency compared with its enantiomer (comparison of the Table 7 potencies of separated enantiomers)
Cc1cn(-c2ccc3n(c2=O)CCN(CC24CC2(C)Oc2c(F)cc(OC(F)(F)F)cc24)C3=O)cn1 (racemic) [Example C33, 2-{[3-fluoro-1a-methyl-5-(trifluoromethoxy)-1,1a-dihydro-6bH-cyclopropa[b][1]benzofuran-6b-yl]methyl}-7-(4-methyl-1H-imidazol-1-yl)-3,4-dihydro-2H-pyrido[1,2-a]pyrazine-1,6-dione] | 9.3 | 
Cc1cn(-c2ccc3n(c2=O)CCN(C[C@@]24C[C@]2(C)Oc2ccc(OC(F)(F)F)cc24)C3=O)cn1 (single isomer, unassigned) [Example 2] | 6.5 | more potent than its enantiomer 3
Cc1cn(-c2ccc3n(c2=O)CCN(C[C@]24C[C@@]2(C)Oc2ccc(OC(F)(F)F)cc24)C3=O)cn1 (single isomer, unassigned) [Example 3] | 59.2 | 
Cc1cn(-c2ccc3n(c2=O)CCN(C[C@@]24C[C@]2(C)Oc2c(F)cc(OC(F)(F)F)cc24)C3=O)cn1 (single isomer, unassigned) [Example 4] | 4.9 | 
Cc1cn(-c2ccc3n(c2=O)CCN(C[C@]24C[C@@]2(C)Oc2c(F)cc(OC(F)(F)F)cc24)C3=O)cn1 (single isomer, unassigned) [Example 5] | 59.2 | 
Cc1cn(-c2ccc3n(c2=O)CCN(C[C@@]24C[C@]2(C)Oc2cc(F)c(OC(F)(F)F)cc24)C3=O)cn1 (single isomer, unassigned) [Example 6] | 7 | 
Cc1cn(-c2ccc3n(c2=O)CCN(C[C@]24C[C@@]2(C)Oc2cc(F)c(OC(F)(F)F)cc24)C3=O)cn1 (single isomer, unassigned) [Example 7] | 38 | 
Cc1ncn(-c2ccc3n(c2=O)CCN(C[C@@]24C[C@]2(C)Oc2cc(F)c(OC(F)(F)F)cc24)C3=O)n1 (single isomer, unassigned) [Example 8] | 36.6 | 
Cc1ncn(-c2ccc3n(c2=O)CCN(C[C@]24C[C@@]2(C)Oc2cc(F)c(OC(F)(F)F)cc24)C3=O)n1 (single isomer, unassigned) [Example 9] | 519 | 
Cc1cn(-c2ccc3n(c2=O)CCN(C[C@@]24C[C@]2(C)Oc2cc(Cl)c(C(F)(F)F)cc24)C3=O)cn1 (single isomer, unassigned) [Example 10] | 3 | 
Cc1cn(-c2ccc3n(c2=O)CCN(C[C@]24C[C@@]2(C)Oc2cc(Cl)c(C(F)(F)F)cc24)C3=O)cn1 (single isomer, unassigned) [Example 11] | 10 | 
Cc1cn(-c2ccc3n(c2=O)CCN(C[C@@]24C[C@]2(C)Oc2cc(F)c(OC(F)F)cc24)C3=O)cn1 (single isomer, unassigned) [Example 12] | 17.8 | 
Cc1cn(-c2ccc3n(c2=O)CCN(C[C@]24C[C@@]2(C)Oc2cc(F)c(OC(F)F)cc24)C3=O)cn1 (single isomer, unassigned) [Example 13] | 84.9 | 
Cc1cn(-c2ccc3n(c2=O)CCN(C[C@@]24C[C@]2(C)Oc2cc(F)c(C(F)(F)F)cc24)C3=O)cn1 (single isomer, unassigned) [Example 17] | 4.4 | 
Cc1cn(-c2ccc3n(c2=O)CCN(C[C@]24C[C@@]2(C)Oc2cc(F)c(C(F)(F)F)cc24)C3=O)cn1 (single isomer, unassigned) [Example 18] | 20.2 | 
Cc1cn(-c2ccc3n(c2=O)CCN(C[C@@]24C[C@]2(C)Oc2c(F)cc(C(F)(F)F)cc24)C3=O)cn1 (single isomer, unassigned) [Example 19] | 11.1 | 
Cc1cn(-c2ccc3n(c2=O)CCN(C[C@]24C[C@@]2(C)Oc2c(F)cc(C(F)(F)F)cc24)C3=O)cn1 (single isomer, unassigned) [Example 20] | 50.1 | 
Cc1cn(-c2ccc3n(c2=O)CCN(C[C@@]24C[C@]2(C)Oc2c(Cl)cc(C(F)(F)F)cc24)C3=O)cn1 (single isomer, unassigned) [Example 21] | 16 | 
Cc1cn(-c2ccc3n(c2=O)CCN(C[C@]24C[C@@]2(C)Oc2c(Cl)cc(C(F)(F)F)cc24)C3=O)cn1 (single isomer, unassigned) [Example 22] | 58.3 | 
Cc1cn(-c2ccc3n(c2=O)CCN(CC24CC2Oc2ccc(C(F)(F)F)cc24)C3=O)cn1 (stereo not drawn) [Example 1, 7-(4-Methyl-1H-imidazol-1-yl)-2-{[5-(trifluoromethyl)-1,1a-dihydro-6bH-cyclopropa[b][1]benzofuran-6b-yl]methyl}-3,4-dihydro-2H-pyrido[1,2-a]pyrazine-1,6-dione] | 48.5 | 
C[C@]12C[C@@]1(CN1CCn3c(ccc(-n4cnc(CO)c4)c3=O)C1=O)c1cc(OC(F)(F)F)c(F)cc1O2 [Example 14, 2-{[(1aS,6bS)-4-fluoro-1a-methyl-5-(trifluoromethoxy)-1,1a-dihydro-6bH-cyclopropa[b][1]benzofuran-6b-yl]methyl}-7-[4-(hydroxymethyl)-1H-imidazol-1-yl]-3,4-dihydro-2H-pyrido[1,2-a]pyrazine-1,6-dione] | 18.7 | 
Cc1cn(-c2ccc3n(c2=O)CCN(C[C@@]24C[C@]2(C)Oc2ccc(C(F)(F)F)cc24)C3=O)cn1 [Example 15, 7-(4-methyl-1H-imidazol-1-yl)-2-{[(1aS,6bS)-1a-methyl-5-(trifluoromethyl)-1,1a-dihydro-6bH-cyclopropa[b][1]benzofuran-6b-yl]methyl}-3,4-dihydro-2H-pyrido[1,2-a]pyrazine-1,6-dione] | 8.5 | 
Cc1cn(-c2ccc3n(c2=O)CCN(C[C@]24C[C@@]2(C)Oc2ccc(C(F)(F)F)cc24)C3=O)cn1 [Example 16, 7-(4-methyl-1H-imidazol-1-yl)-2-{[(1aR,6bR)-1a-methyl-5-(trifluoromethyl)-1,1a-dihydro-6bH-cyclopropa[b][1]benzofuran-6b-yl]methyl}-3,4-dihydro-2H-pyrido[1,2-a]pyrazine-1,6-dione] | 47.3 | 
Cc1cn(-c2ccc3n(c2=O)CCN(CC24CC2(C)Oc2ccc(OC(F)(F)F)cc24)C3=O)cn1 (stereo not drawn) [Example C22, 7-(4-methyl-1H-imidazol-1-yl)-2-{[1a-methyl-5-(trifluoromethoxy)-1,1a-dihydro-6bH-cyclopropa[b][1]benzofuran-6b-yl]methyl}-3,4-dihydro-2H-pyrido[1,2-a]pyrazine-1,6-dione] | 19.5 | 
Cc1cn(-c2ccc3n(c2=O)CCN(CC24CC2(C)Oc2cc(F)c(OC(F)(F)F)cc24)C3=O)cn1 (stereo not drawn) [Example C40, 2-{[4-fluoro-1a-methyl-5-(trifluoromethoxy)-1,1a-dihydro-6bH-cyclopropa[b][1]benzofuran-6b-yl]methyl}-7-(4-methyl-1H-imidazol-1-yl)-3,4-dihydro-2H-pyrido[1,2-a]pyrazine-1,6-dione] | 11.2 | 
Cc1ncn(-c2ccc3n(c2=O)CCN(CC24CC2(C)Oc2cc(F)c(OC(F)(F)F)cc24)C3=O)n1 (stereo not drawn) [Example C44, 2-{[4-fluoro-1a-methyl-5-(trifluoromethoxy)-1,1a-dihydro-6bH-cyclopropa[b][1]benzofuran-6b-yl]methyl}-7-(3-methyl-1H-1,2,4-triazol-1-yl)-3,4-dihydro-2H-pyrido[1,2-a]pyrazine-1,6-dione] | 68.9 | 
